Laboratory results taken from EP4806449A1, “ANTIVIRAL FOOD PRODUCT” (Creaciones Aromáticas Industriales, S.A., priority 2023, dated 2025).
Converted amounts (≈) assume the structure as drawn.

Key:
[1] = test system: human coronavirus 229E; experiment: microbe, parasite or virus in culture; conditions: MRC5
Protocol: (§4) In this study, the ability of the product object of the invention to inhibit the infectivity of human coronavirus 229E was determined. To that end, different concentrations of grape extract were incubated together with a defined concentration of the virus of interest for 30 minutes. Exposure of host cells to the virus causes the virus to replicate within the cells, which produces a cytopathic effect on the cells that is quantified by means of a cell viability assay after 5 days of exposure.
(§5) The MRC-5 cell line (lung-derived fibroblasts) from the American Type Culture Collection (ATCC) (CCL-171) was used. […]
(§6) A stock solution of the test substance was prepared in dimethyl sulfoxide (DMSO) at 100 mg/ml. […] Next, 0.25 ml of each dilution were mixed with 0.25 ml of a 229E inoculum diluted in 2% FBS EMEM medium, with the inoculum at an infectious concentration of 1000 TCID50/ml and the maximum concentration of the extract at 1 mg/ml (concentration range analysed in the medium: 7.81-1000 µg/ml). […]
(§7) To that end, a stock solution of the test substance was prepared in dimethyl sulfoxide (DMSO) at 50 mg/ml. […] Next, 0.25 ml of each dilution were mixed with 0.25 ml of a 229E inoculum diluted in 2% FBS EMEM medium, with the inoculum at an infectious concentration of 1000 TCID50/ml and the maximum concentration of the extract at 1 mg/ml (concentration range analysed in the medium: 0.78125 µg/ml - 100 µg/ml). […]

[2] = test system: MRC-5 cells; experiment: Toxicity controls without virus (MTT cell viability); type: cell-based; conditions: MRC-5 cells without 229E virus; 4.5h treatment; MTT after 5 days
Protocol: (§1) The MRC-5 cell line (lung-derived fibroblasts) from the American Type Culture Collection (ATCC) (CCL-171) was used. Cells were kept at 37°C and 5% CO2 in Eagle minimum essential medium (EMEM) supplemented with 10% foetal bovine serum (FBS) and antibiotics, trypsinising every 3-4 days, before reaching 90% confluence. Coronavirus 229E was obtained from the ATCC (VR-740) and amplified in MRC-5 cells, according to the ATCC protocol.
(§2) In both experiments, 5 days post-infection, differences in cell viability associated with the cytopathic effect of the virus or toxicity of the treatments were analysed by means of the MTT assay. The MTT assay is a colorimetric assay that measures the activity of enzymes that transform the MTT (methylthiazolyldiphenyl-tetrazolium bromide) molecule to formazan, purple in colour. Briefly, the medium was aspirated from the wells and 0.1 ml of 1 mg/ml MTT solution in EMEM was added to each well, and incubated at 37°C for 2 hours. Next, the MTT solution was aspirated, formazan crystals were dissolved in 0.1 ml of DMSO and absorbance was read at 570 nm (reference 660 nm). The mean absorbance values of the uninfected controls was considered to be 100% cell viability.
(§3) In order to evaluate the results, the following variables were calculated: • CC50: Half maximal cytotoxic concentration, which is the concentration of the compound of interest causing 50% toxicity. […]

[3] = as above; type: cell-based; conditions: human; MRC-5 cells without 229E virus; 4.5h treatment; MTT after 5 days
Protocol: as §1, §2, §3

[4] = test system: human coronavirus 229E; conditions: positive control, dose range 0.06-264 µg/ml
Protocol: as §4, §5, §6, §7

CCN(CC)CCCC(C)Nc1ccnc2cc(Cl)ccc12 (stereo not shown) [Chloroquine, chloroquine]
EC50 [1]: 5.96 µg/mL (≈ 18.6 µM) | CC50 [2]: >264 µg/mL | CC50 at 4.5 h [3]: > 264 µg/mL | clear antiviral effect starting from [4]: ≥ 16.5 µg/mL
